The test system of experiment [1] is MOLM-13 cells. Nature of the experiment: MOLM-13 subcutaneous xenograft survival experiment. The class given is in vivo. Conditions: ABT-199 alone 100 mg/kg daily by oral gavage for 14 days; MOLM-13 xenograft, SCID mice. As to the method: (§1) Tumor growth was monitored throughout the course of the study with bilateral vernier caliper measurements, and mean tumor volumes were calculated using the equation (0.5×[length×width^2]). […] Mice with advanced tumor burden were sacrificed upon reaching tumor volumes of greater than 400 mm^3 or showing symptoms of hind limb paralysis, cranial swelling, and/or moribundity.

The subject of experiment [2] is RL cells. As to the kind of experiment: RL subcutaneous xenograft survival experiment. Type of experiment: in vivo. The conditions noted are these: ABT-199 alone 100 mg/kg daily by oral gavage for 14 days, SCID mice. How it is done: as §1

Turning to `CC1(C)CCC(CN2CCN(c3ccc(C(=O)NS(=O)(=O)c4ccc(NCC5CCOCC5)c([N+](=O)[O-])c4)c(Oc4cnc5[nH]ccc5c4)c3)CC2)=C(c2ccc(Cl)cc2)C1` [ABT-199, 2-(1H-pyrrolo[2,3-b]pyridin-5-yloxy)-4-(4-((2-(4-chlorophenyl)-4,4-dimethylcyclohex-1-enyl)methyl)piperazin-1-yl)-N-(3-nitro-4-(((tetrahydro-2H-pyran-4-yl)methyl)amino)phenylsulfonyl)benzamide], the “rate of survival by day 20” value in experiment [1] amounted to 0%. In experiment [2], the “rate of survival by day 30” value is reported as 0%.

The values are drawn from patent US11027021B2, “Combinations of PBD-based antibody drug conjugates with Bcl-2 inhibitors” (Seagen Inc., priority 2016, dated 2021).
